According to the Deep4Chem optical property database:
Blank lines part the entries; values can stand above or below the compound they belong to.

Experiment: photoluminescence quantum yield (fraction); solvent given as SMILES

SMILES: CCN(CC)c1ccc2cc(/C=C/C(O)=C/C(C)=O)c(=O)oc2c1
- photoluminescence quantum yield (in CC#N): 0.36
- photoluminescence quantum yield (in CC(C)=O): 0.46
- photoluminescence quantum yield (in CCOC(C)=O): 0.5
- photoluminescence quantum yield (in CO): 0.35
- photoluminescence quantum yield (in CS(C)=O): 0.39
- photoluminescence quantum yield (in Cc1ccccc1): 0.66
- photoluminescence quantum yield (in ClC(Cl)Cl): 0.53
- photoluminescence quantum yield (in ClCCl): 0.52

SMILES: O=CN1N=C(c2ccc(Br)cc2)C[C@@H]1c1ccccc1
- photoluminescence quantum yield (in C1CCCCC1): 0.25
- photoluminescence quantum yield (in C1COCCO1): 0.25
- photoluminescence quantum yield (in CC#N): 0.14
- photoluminescence quantum yield (in CCO): 0.13
- photoluminescence quantum yield (in CCOC(C)=O): 0.18
- photoluminescence quantum yield (in CO): 0.05
- photoluminescence quantum yield (in CS(C)=O): 0.11
- photoluminescence quantum yield (in Cc1ccccc1): 0.01
- photoluminescence quantum yield (in ClC(Cl)(Cl)Cl): 0.02

SMILES: N#Cc1ccc(C#Cc2ccccc2C#N)cc1
- photoluminescence quantum yield (in ClC(Cl)Cl): 0.452

SMILES: c1cc2c3c(c1)-c1ccc4c5c(ccc(c15)B3c1ccc3c5c(ccc-2c15)CC3)CC4
- photoluminescence quantum yield (in Cc1ccccc1): 0.79

SMILES: CC(C)(C)c1ccc2c(c1)c1cc(C(C)(C)C)ccc1n2-c1cccc2c1Oc1c(-c3nc(-c4ccccc4)nc(-c4ccccc4)n3)cccc1C2(C)C
- photoluminescence quantum yield (in Cc1ccccc1): 0.06

SMILES: COc1ccc2cc(/C=C/C3=C4CCc5ccccc5C4=[O+][B-](F)(F)O3)ccc2c1
- photoluminescence quantum yield (in ClCCl): 0.33

SMILES: CCOC(=O)/C=C/C1=[N+]2C(=C(c3c(C)cc(C)cc3C)c3ccc(/C=C/C(=O)OCC)n3[B-]2(F)F)C=C1
- photoluminescence quantum yield (in ClCCl): 0.98

SMILES: COc1ccc(-c2csc(/C(C#N)=C\Nc3ccc(C#N)cc3)n2)cc1
- photoluminescence quantum yield (in CC#N): 0.001
- photoluminescence quantum yield (in CCO): 0.001
- photoluminescence quantum yield (in CN(C)C=O): 0.003
- photoluminescence quantum yield (in Cc1ccccc1): 0.003
- photoluminescence quantum yield (in ClCCl): 0.001

SMILES: COC(=O)c1cc(=O)n(C)c2cc(-c3ccc(N4CCN(C)CC4)cc3)sc12
- photoluminescence quantum yield (in CC#N): 0.03
- photoluminescence quantum yield (in ClCCl): 0.99

SMILES: F[B-]1(F)Oc2ccccc2-c2cc(-n3c4ccccc4c4ccccc43)cc[n+]21
- photoluminescence quantum yield (in O=P(c1ccccc1)(c1ccccc1)c1ccccc1Oc1ccccc1P(=O)(c1ccccc1)c1ccccc1): 0.99

SMILES: COc1ccc(C2=[N+]3C(=Nc4c5c6ccccc6c6ccc(C(C)(C)C)cc6c5c(-c5ccc(OC)cc5)n4[B-]3(F)F)c3c2c2cc(C(C)(C)C)ccc2c2ccccc32)cc1
- photoluminescence quantum yield (in Cc1ccccc1): 0.32

SMILES: COc1cc(/C=C2/SC(=O)NC2=O)ccc1O
- photoluminescence quantum yield (in C1CCCCC1): 0.018
- photoluminescence quantum yield (in C1COCCO1): 0.017
- photoluminescence quantum yield (in CC#N): 0.01
- photoluminescence quantum yield (in CN(C)C=O): 0.023
- photoluminescence quantum yield (in CO): 0.012
- photoluminescence quantum yield (in O): 0.011
- photoluminescence quantum yield (in OCC(O)CO): 0.35
- photoluminescence quantum yield (in OCCO): 0.104

SMILES: Nc1nc(/C=C/c2ccc(N(c3ccccc3)c3ccccc3)cc2)cc(/C=C/c2ccc(N(c3ccccc3)c3ccccc3)cc2)n1
- photoluminescence quantum yield (in Cc1ccccc1): 0.88
- photoluminescence quantum yield (in ClC(Cl)Cl): 0.73

SMILES: c1cc2ccc1CCCc1cc3c(cc1CCCc1ccc(c4nsnc14)CCC3)CCC2
- photoluminescence quantum yield (in C1CCCCC1): 0.12
- photoluminescence quantum yield (in CC#N): 0.02
- photoluminescence quantum yield (in ClC(Cl)Cl): 0.08

SMILES: Cc1cc(=O)cc(-c2ccc(-c3nc4ccccn4c3NC3CCCCC3)cc2)o1
- photoluminescence quantum yield (in ClCCl): 0.019

SMILES: CCCCCCCCCCCCCCCCCCOC(=O)/C=C/C1=CC2=C(c3c(C)cc(C)cc3C)c3cccn3[B-](F)(F)[N+]2=C1
- photoluminescence quantum yield (in ClCCl): 0.34

SMILES: COc1ccc2oc(-c3cc4cc(OC)ccc4oc3=O)cc2c1
- photoluminescence quantum yield (in CS(C)=O): 0.16

SMILES: c1ccc(-c2cc(-c3ccccc3)cc(-c3ccc4c(c3)C3(c5ccccc5-4)c4ccccc4-c4c3c3c5ccccc5c(-c5cc(-c6ccccc6)cc(-c6ccccc6)c5)cc3c3ccccc43)c2)cc1 (stereo not given)
- photoluminescence quantum yield (in Cc1ccccc1): 0.87

SMILES: CN1c2cc3nc4cc(Br)c(Br)cc4nc3cc2N(C)C1(C)C
- photoluminescence quantum yield (in CCO): 0.11

SMILES: Cc1ccc(/C=C/c2ccccc2-[n+]2cc([O-])on2)cc1
- photoluminescence quantum yield (in C1CCCCC1): 0.0007
- photoluminescence quantum yield (in CC#N): 0.017

SMILES: CCCN(c1ccccc1)c1ccc2c(c1)C(CC)(CC)c1cc(/C=C/c3ccc(/C=C(\C#N)C(=O)O)s3)ccc1-2
- photoluminescence quantum yield (in C1CCOC1): 0.355
- photoluminescence quantum yield (in C1COCCO1): 0.862
- photoluminescence quantum yield (in CC#N): 0.229
- photoluminescence quantum yield (in CC(C)=O): 0.486
- photoluminescence quantum yield (in CCOC(C)=O): 0.584
- photoluminescence quantum yield (in CN(C)C=O): 0.894
- photoluminescence quantum yield (in CS(C)=O): 0.611
- photoluminescence quantum yield (in ClCCl): 0.624

SMILES: O=C1C=CC2=Cc3ccccc3B(O)N12
- photoluminescence quantum yield (in CC#N): 0.97
- photoluminescence quantum yield (in CO): 0.1
- photoluminescence quantum yield (in CS(C)=O): 0.01
- photoluminescence quantum yield (in ClC(Cl)Cl): 0.65

SMILES: O=c1oc2ccccc2c(O)c1C(CC(O)c1ccc(-c2ccc(Br)cc2)cc1)c1ccccc1 (stereo not given)
- photoluminescence quantum yield (in CC#N): 0.06
- photoluminescence quantum yield (in CCO): 0.058
- photoluminescence quantum yield (in CO): 0.034
- photoluminescence quantum yield (in O): 0.017

SMILES: COc1cc(C2=c3c(c4ccc(C(C)(C)C)cc4c4cc(C(C)(C)C)ccc34)=[N+]3C2=Nc2c(-c4cc(OC)c(OC)c(OC)c4)c4c5ccc(C(C)(C)C)cc5c5cc(C(C)(C)C)ccc5c4n2[B-]3(F)F)cc(OC)c1OC
- photoluminescence quantum yield (in Cc1ccccc1): 0.01

SMILES: Cc1ccc(OCc2cc(=O)oc3c2ccc2ccccc23)cc1
- photoluminescence quantum yield (in C1CCOC1): 0.0561
- photoluminescence quantum yield (in C1COCCO1): 0.0665
- photoluminescence quantum yield (in CC#N): 0.0506
- photoluminescence quantum yield (in CC(C)=O): 0.0465
- photoluminescence quantum yield (in CCCCO): 0.0333
- photoluminescence quantum yield (in CCCO): 0.0312
- photoluminescence quantum yield (in CCO): 0.028
- photoluminescence quantum yield (in CCOC(C)=O): 0.0471
- photoluminescence quantum yield (in CN(C)C=O): 0.0576
- photoluminescence quantum yield (in CO): 0.0265
- photoluminescence quantum yield (in Cc1ccccc1): 0.0798
- photoluminescence quantum yield (in ClCCl): 0.0584

SMILES: COc1ccc2nc(N)n[n+]([O-])c2c1
- photoluminescence quantum yield (in CC#N): 0.472
- photoluminescence quantum yield (in O): 0.0868

SMILES: COc1c2ccccc2c(OC)c2c(C#CC(C)(C)C)c3cc4sccc4cc3c(C#CC(C)(C)C)c12
- photoluminescence quantum yield (in C1CCOC1): 0.1
- photoluminescence quantum yield (in Cc1ccccc1): 0.14
- photoluminescence quantum yield (in ClCCl): 0.08

SMILES: CCCCCOc1cc2oc(=O)c3c4ccc(O)cc4c4ccc5cccc6c(c1)c2c3c4c56
- photoluminescence quantum yield (in C1CCOC1): 0.27

SMILES: F[B-]1(F)n2c(c3cccc4cccc2c43)=Nc2sc3ccccc3[n+]21
- photoluminescence quantum yield (in C1CCOC1): 0.89
- photoluminescence quantum yield (in CC#N): 0.97
- photoluminescence quantum yield (in CCCCCC): 0.87
- photoluminescence quantum yield (in Cc1ccccc1): 0.76
- photoluminescence quantum yield (in ClCCl): 0.85

SMILES: CCCn1c2cccc3c2[c+]2c4c1cccc4n(CCC)c1cccc(c12)n3CCC
- photoluminescence quantum yield (in CC#N): 0.16
- photoluminescence quantum yield (in CO): 0.2
- photoluminescence quantum yield (in ClCCl): 0.16

SMILES: CC[C@H](C)[C@H](Nc1c(C(C)=O)c(=O)oc2cc(N(C)C)ccc12)C(=O)O
- photoluminescence quantum yield (in ClCCl): 0.0031

SMILES: CC1(C)c2cccc(-c3nc(-c4ccccc4)nc(-c4ccccc4)n3)c2Oc2c(N3c4ccccc4Sc4ccccc43)cccc21
- photoluminescence quantum yield (in Cc1ccccc1): 0.077

SMILES: Cc1ccc2ccccc2c1
- photoluminescence quantum yield (in C1CCCCC1): 0.52

SMILES: c1ccc2nc3c(nc2c1)[nH]c1ccccc13
- photoluminescence quantum yield (in C1COCCO1): 0.04
- photoluminescence quantum yield (in CC#N): 0.05
- photoluminescence quantum yield (in CCCCCCC): 0.02
- photoluminescence quantum yield (in CCO): 0.01

SMILES: CC(=O)n1cc(/C=C/c2ccc([N+](=O)[O-])cc2)c2ccccc21
- photoluminescence quantum yield (in CC#N): 0.045
- photoluminescence quantum yield (in CCCCCCC): 0.008
- photoluminescence quantum yield (in CO): 0.002
- photoluminescence quantum yield (in O): 0.003

SMILES: CCCC1(CCC)c2cc(-c3ccc(-c4ccccc4)cc3)ccc2-c2ccc(-c3ccc4c(c3)C(CCC)(CCC)c3cc(-c5ccc(-c6ccccc6)cc5)ccc3-4)cc21
- photoluminescence quantum yield (in Cc1ccccc1): 0.92

Other lines, results leading:

- photoluminescence quantum yield (in CO): 0.24
- photoluminescence quantum yield (in CS(C)=O): 0.15
- photoluminescence quantum yield (in O): 0.07
SMILES: CCCN1/C(=C/C=C(/C=C/C2=[N+](CCC)c3ccccc3C2(C)C)c2ccncc2)C(C)(C)c2ccccc21

- photoluminescence quantum yield (in ClCCl): 0.25
SMILES: C(=C\c1ccc(-c2cccc3ccccc23)s1)/c1cccs1

- photoluminescence quantum yield (in c1cc(-c2cccc(-n3c4ccccc4c4ccccc43)c2)cc(-n2c3ccccc3c3ccccc32)c1): 0.52
SMILES: O=c1oc2ccccc2c2cc(N3c4ccccc4Oc4ccccc43)ccc12

- photoluminescence quantum yield (in ClCCl): 0.12
SMILES: CC(C)[Si](C#Cc1c2cc3ccccc3cc2c(C#Cc2ccc(Br)cc2)c2cc3ccccc3cc12)(C(C)C)C(C)C

- photoluminescence quantum yield (in ClCCl): 0.05
SMILES: N#CC(C#N)=Cc1ccc2c(c1)c1ccccc1n2-c1cccc2ccccc12

- photoluminescence quantum yield (in C1CCCCC1): 0.36
- photoluminescence quantum yield (in CC#N): 0.14
- photoluminescence quantum yield (in ClCCl): 0.24
SMILES: O=S1(=O)c2ccccc2-c2cc(-c3c4ccccc4cc4ccccc34)ccc21

- photoluminescence quantum yield (in C1CCOC1): 0.045
SMILES: COc1ccc(C(=Cc2ccc(/C=C(\C#N)c3ccc([N+](=O)[O-])cc3)cc2)c2ccc(OC)cc2)cc1

- photoluminescence quantum yield (in CCO): 0.11
- photoluminescence quantum yield (in CS(C)=O): 0.16
SMILES: CN1/C(=C/C=C(/C=C/C2=[N+](C)c3ccccc3C2(C)C)c2cccc(C(F)(F)F)c2)C(C)(C)c2ccccc21

- photoluminescence quantum yield (in C1CCOC1): 0.32
SMILES: c1ccc(/C(=C(\c2ccccc2)c2ccccc2-c2ccc(-c3ccccc3)cc2)c2ccccc2-c2ccc(-c3ccccc3)cc2)cc1

- photoluminescence quantum yield (in CO): 0.4
SMILES: O=C(O)c1ccc(-c2cnc(-c3ccc(N(c4ccccc4)c4ccccc4)cc3)s2)cc1

- photoluminescence quantum yield (in ClC(Cl)Cl): 0.43
SMILES: c1ccc(-c2nc(-c3ccccc3)c(N(c3ccccc3)c3ccccc3)s2)cc1

- photoluminescence quantum yield (in ClCCl): 0.01
SMILES: O=S1(=O)C2=C(c3ccccc31)C1(c3ccccc32)c2ccccc2-c2sc3ccccc3c21 (stereo not given)

- photoluminescence quantum yield (in ClC(Cl)Cl): 0.89
SMILES: CCCCCCCCC1(CCCCCCCC)c2cc(-c3ccc([Si](C)(C)C)cc3)ccc2-c2ccc(-c3ccc([Si](C)(C)C)cc3)cc21

- photoluminescence quantum yield (in C1CCOC1): 0
SMILES: CCCCCCc1ccsc1-c1ccc2c(c1)C1=[N+]3C2=Cc2c4ccc(-c5sccc5CCCCCC)cc4c4n2[B-]3(Oc2ccccc21)Oc1ccccc1-4 (stereo not given)

- photoluminescence quantum yield (in ClCCl): 0.6
SMILES: COc1ccc(-c2c3ccccc3c(C#Cc3ccccc3)c3cc4ccccc4cc23)cc1

- photoluminescence quantum yield (in C1CCCCC1): 0.85
SMILES: CCC(C)(C)c1ccc2c(c1)C(CC)(CC)c1cc(-c3ccc4c(c3)C(CC)(CC)c3cc(C(C)(C)CC)ccc3-4)ccc1-2

- photoluminescence quantum yield (in ClC(Cl)Cl): 0.18
SMILES: F[B-]1(F)n2cccc2C(c2ccccc2)=C2C=CC(c3cccc(OC4=[N+]5C(=C(c6ccccc6)c6cc(Br)c(-c7ccc[nH]7)n6[B-]5(F)F)C=C4Br)c3)=[N+]21

- photoluminescence quantum yield (in C1COCCO1): 0.083
SMILES: O=C1OC(c2ccccc2)=C/C1=C\c1ccc([N+](=O)[O-])cc1

- photoluminescence quantum yield (in ClCCl): 0.29
SMILES: F[B-]12Oc3ccccc3-c3c4[n+]5c(c([n+]31)-c1ccccc1O2)-c1ccccc1O[B-]5(F)Oc1ccccc1-4
